According to patent US6916791B2, “Androgen derivatives and uses thereof” (Strakan Limited, priority 1999, dated 2005):

Columns and labels:
[1] = orchiectomised male rats
[2] = mice; compared with testosterone administered by the same route; cited from earlier work

Compound: C[C@]12CC[C@H]3[C@@H](CCC4=CC(=O)CC[C@@]43C)[C@@H]1CC[C@@H]2O[C@@H]1O[C@H](CO)[C@@H](O)[C@H](O)[C@H]1O [testosterone glucoside, Testosterone-17-β-1′-β′-D-glucopyranose]
- bioavailability, oral ([1]; 1.56 mg orally daily for 6 days, serum testosterone 4 hours after final dose): bioavailable when given orally
- metabolism to testosterone ([1]; oral or intramuscular, daily for 6 days): readily metabolised to testosterone
- biological activity in vivo [2]: very little activity in vivo, and certainly less than testosterone
